From PMC6152192, “Novel Methylselenoesters as Antiproliferative Agents” (Molecules : A Journal of Synthetic Chemistry and Natural …, 2017)
Several values for one entry are separate records, joined by “and”; a condition that tells them apart may be missing. Identical values can stand only once.

Assays:
Format in all cases: cell-based
[1] = test system: BEAS-2B (non-malignant bronchial epithelial); test: MTT viability assay, BEAS-2B; settings: BEAS-2B non-malignant, 72 h, MTT; for CC50: read-out: LC50 (the source's name)
Method: (§1) The novel compounds were tested against a panel of different cancer lines: PC-3 (prostate adenocarcinoma), MCF7 (mammary adenocarcinoma), HTB-54 (lung carcinoma), K-562 (chronic myelogenous leukemia) and HT-29 (colorectal adenocarcinoma). Two non-malignant cell lines, BEAS-2B (bronchial epithelial) and 184B5 (mammary epithelial) were also included to evaluate the toxicity of the novel synthesized compounds. The antiproliferative activity was measured with the [3-(4,5-dimethylthiazol-2-yl)-2,5-diphenyltetrazolium bromide] (MTT) assay after 72 h treatment. Six concentrations ranging from 0.1 to 100 μM were tested. MSA is largely known as the main CH3SeH putative precursor and was therefore included as positive control. The following parameters were calculated: GI50 (concentration which reduces the growth by 50%), TGI (concentration completely inhibiting growth) and LC50 (concentration that kills 50% of the cells).
(§2) All cells were purchased from the American Type Culture Collection (ATCC, Barcelona, Spain). HT-29 (colorectal adenocarcinoma), HTB-54 (grade III lung carcinoma), MCF7 (mammary adenocarcinoma), PC-3 (grade IV prostate adenocarcinoma) and K-562 (chronic myelogenous leukemia) were cultured in RPMI (Gibco, Madrid, Spain), 10% FBS (Gibco), 100 units/mL penicillin and 100 μg/mL streptomycin (Gibco). BEAS-2B cell line (normal epithelial lung) was cultured in DMEM (Gibco), 10% FBS, 100 units/mL penicillin and 100 μg/mL streptomycin. 184B5 (normal mammary gland) cell line was cultured in DMEM:F12 supplemented with 5% FBS, 1 × ITS (Lonza, Barcelona, Spain), 100 nM hydrocortisone (Sigma-Aldrich), 2 mM sodium pyruvate (Lonza), 20 ng/mL EGF (Sigma-Aldrich), 0.3 nM trans-retinoic acid (Sigma-Aldrich), 100 units/mL penicillin and 100 µg/mL streptomycin. Cells were cultured at 37 °C under 5% CO2.
(§3) Cell viability after treatment was assessed by the well-known 3-(4,5-dimethyl-thiazol-2-yl)-2,5-diphenyltetrazolium bromide (MTT, Sigma-Aldrich) assay. Briefly, 10,000 cells were seeded in 96-well plates, treated and incubated for 72 h. Dilutions of the compounds in cell medium were freshly prepared from a 0.01 M stock in DMSO. After treatment, 50 μL of MTT solution in PBS (2 mg/mL) were added and cells were incubated for 4 h. Medium was removed and 150 μL of DMSO was added to dissolve the formed formazan crystals. Absorbance was read at 550 nm in a microplate absorbance reader (Sunrise, Tecan, Männedorf, Switzerland).

HTB-54 (lung carcinoma) = test: MTT viability assay, HTB-54; settings: HTB-54, 72 h, MTT; for CC50: read-out: LC50 (the source's name)
Method: as §1, §2, §3

[2] = test system: MCF7 (mammary adenocarcinoma); test: MTT viability assay, MCF7; settings: MCF7, 72 h, MTT; for CC50: read-out: LC50 (the source's name)
Method: as §1, §2, §3

[3] = test system: PC-3 (prostate adenocarcinoma); test: MTT viability assay, PC-3; settings: PC-3, 72 h, MTT; for CC50: read-out: LC50 (the source's name)
Method: as §1, §2, §3

[4] = test system: K-562 (chronic myelogenous leukemia); test: MTT viability assay, K-562; settings: K-562, 72 h, MTT; for CC50: read-out: LC50 (the source's name)
Method: as §1, §2, §3

[5] = test system: 184B5 (non-malignant mammary epithelium); test: MTT viability assay, 184B5; settings: 184B5 non-malignant, 72 h, MTT; for CC50: read-out: LC50 (the source's name)
Method: as §1, §2, §3

[6] = test system: HT-29 (colorectal adenocarcinoma); test: MTT viability assay, HT-29; settings: HT-29, 72 h, MTT; for CC50: read-out: LC50 (the source's name)
Method: as §1, §2, §3

Dimethyl 5-cyano-1,3-benzenedicarboselenoate [Compound 14]
GI50 [1]: 3.2 ± 0.7 µM
TGI [1]: 5.5 ± 0.5 µM
CC50 [1]: 7.8 ± 0.3 µM
GI50 (HTB-54 (lung carcinoma)): 3.8 ± 0.6 µM
CC50 (HTB-54 (lung carcinoma)): 66.5 ± 4.5 µM
GI50 [2]: 4.9 ± 0.8 µM
TGI [2]: 8.4 ± 1.1 µM
CC50 [2]: 54.4 ± 2.7 µM
GI50 [3]: 7.2 ± 3.5 µM
TGI [3]: 32.3 ± 3.7 µM
CC50 [3]: 68.7 ± 3 µM
GI50 [4]: 29.9 ± 0.6 µM
TGI [4]: 54.7 ± 0.7 µM
CC50 [4]: 79.5 ± 0.7 µM
GI50 [5]: 3.8 ± 0.7 µM
TGI [5]: 6.5 ± 0.6 µM
CC50 [5]: 9.3 ± 0.7 µM
GI50 [6]: 3.8 ± 0.1 µM
TGI [6]: 7.9 ± 0.7 µM
CC50 [6]: > 100 µM

Methyl 2-(4-pyridyl)thiazole-4-carboselenoate [Compound 12]
GI50 [1]: 3.7 ± 1.3 µM
TGI [1]: 6.4 ± 1.3 µM
CC50 [1]: 9.2 ± 1 µM
GI50 (HTB-54 (lung carcinoma)): 9.8 ± 5.1 µM
TGI (HTB-54 (lung carcinoma)): 44.9 ± 3.7 µM
CC50 (HTB-54 (lung carcinoma)): 80.5 ± 3.5 µM
GI50 [2]: 4.4 ± 1 µM
TGI [2]: 8.1 ± 1.7 µM
CC50 [2]: 56.2 ± 9.6 µM
GI50 [3]: > 10 µM and 16.9 µM
TGI [3]: 50.9 ± 4.9 µM
CC50 [3]: 85 ± 4.7 µM
GI50 [4]: 82 ± 4.4 µM
TGI [4]: >100 µM
CC50 [4]: > 100 µM
GI50 [5]: 3.4 ± 0.3 µM
TGI [5]: 6.5 ± 0.8 µM
CC50 [5]: 9.6 ± 2.8 µM
GI50 [6]: 5.1 ± 0.1 µM
TGI [6]: 14.2 ± 6.6 µM
CC50 [6]: > 100 µM

Methyl 2-phenyl-4-quinolinecarboselenoate [Compound 10]
GI50 [1]: 3.1 ± 0.5 µM
TGI [1]: 5.5 ± 0.4 µM
CC50 [1]: 7.8 ± 0.5 µM
GI50 (HTB-54 (lung carcinoma)): 5.9 ± 1.1 µM
TGI (HTB-54 (lung carcinoma)): 16.7 ± 2.3 µM
CC50 (HTB-54 (lung carcinoma)): 64.4 ± 4.2 µM
GI50 [2]: 5.6 ± 1.3 µM
TGI [2]: 51.3 ± 3.7 µM
CC50 [2]: > 100 µM
GI50 [3]: 4.4 ± 1.3 µM
CC50 [3]: 70.9 ± 5.2 µM
GI50 [4]: 9.7 ± 4.9 µM
TGI [4]: 59.1 ± 3.5 µM
CC50 [4]: > 100 µM
GI50 [5]: 3.9 ± 0.7 µM
TGI [5]: 6.3 ± 0.5 µM
CC50 [5]: 8.7 ± 0.4 µM
GI50 [6]: 4.1 ± 0.3 µM
TGI [6]: 7.5 ± 0.7 µM
CC50 [6]: 35 ± 2.4 µM

Methyl benzo[b]thiophene-2-carboselenoate [Compound 7]
GI50 [1]: 3.9 ± 0.6 µM
TGI [1]: 6.8 ± 0.8 µM
CC50 [1]: 9.8 ± 1.1 µM
GI50 (HTB-54 (lung carcinoma)): > 10 µM and 17.5 µM
TGI (HTB-54 (lung carcinoma)): 55.4 ± 4.4 µM
CC50 (HTB-54 (lung carcinoma)): 93.4 ± 4.8 µM
GI50 [2]: 6.9 ± 1.4 µM
TGI [2]: 61.6 ± 4.1 µM
CC50 [2]: > 100 µM
GI50 [3]: > 10 µM and 18.4 µM
TGI [3]: 47.8 ± 3.9 µM
CC50 [3]: 77.3 ± 4.5 µM
GI50 [4]: 29.2 ± 4.4 µM
TGI [4]: 58.8 ± 1.5 µM
CC50 [4]: 88.3 ± 3.3 µM
GI50 [5]: 3.9 ± 1.2 µM
TGI [5]: 6.9 ± 1.7 µM
CC50 [5]: 9.9 ± 0.8 µM
GI50 [6]: 3.7 ± 0.2 µM
TGI [6]: 7.4 ± 0.9 µM
CC50 [6]: 41.8 ± 4.5 µM

Methyl 1,3-benzodioxole-5-carboselenoate [Compound 8]
GI50 [1]: 3.1 ± 0.3 µM
TGI [1]: 5.6 ± 0.6 µM
CC50 [1]: 8 ± 1.1 µM
GI50 (HTB-54 (lung carcinoma)): 6 ± 0.9 µM
TGI (HTB-54 (lung carcinoma)): 23.2 ± 2.6 µM
CC50 (HTB-54 (lung carcinoma)): 77.1 ± 4.9 µM
GI50 [2]: 4.6 ± 0.5 µM
TGI [2]: 9.2 ± 1.3 µM
CC50 [2]: 68.7 ± 2.5 µM
GI50 [3]: 5.7 ± 1.6 µM
TGI [3]: 11.0 ± 3.1 µM
CC50 [3]: 96 ± 4.7 µM
GI50 [4]: 29.7 ± 4.7 µM
TGI [4]: 62.6 ± 3.9 µM
CC50 [4]: 95.4 ± 4.9 µM
GI50 [5]: 3.7 ± 0.3 µM
TGI [5]: 6.4 ± 0.2 µM
CC50 [5]: 9 ± 0.4 µM
GI50 [6]: 5.9 ± 0.8 µM
TGI [6]: 27.7 ± 4.5 µM
CC50 [6]: 81.1 ± 4 µM
